Test results reported in patent US11092596B2, “Material and method to screen proteasome stimulators” (Purdue Research Foundation, priority 2017, dated 2021).
“Also recorded” adds a separate entry of the source.

What was measured:
Format in all cases: biochemical
[1] = target: T1, chymotrypsin-like activity of the 26S proteasome (Homo sapiens, UniProt P28074); assay: Kinetic assay, CT-L FRET reporter with 26S proteasome; conditions: 25 μM compound
T1 construct: 5 μL purified 26S proteasome (62.5 μg/mL in Tris-HCl) was added to the control and test wells
Procedure: Compounds 1, 2, and 3 were screened with the 26S proteasome in triplicate using the CT-L FRET reporter.
(§1) To each well was added 40 μL 20 μM CT-L FRET reporter (in Tris-HCl, 50 mM, pH 7.7). To the reporter background wells was added 5 μL Tris-HCl and 5 μL 1:1 Tris-HCl:DMSO. Similarly, to the control wells was added 5 μL 1:1 Tris-HCl:DMSO. To the test wells was added 2.5 μL Tris-HCl and 2.5 μL of a 500 μM solution of the compound of interest in DMSO. […] Immediately prior to running the assay on the Synergy 4 Plate Reader, 5 μL purified 26S proteasome (62.5 μg/mL in Tris-HCl) was added to the control and test wells.
(§2) The assay was performed using the Synergy 4 plate reader as described for the general screening kinetic assay procedure.

[2] = target: chymotrypsin-like activity of the immunoproteasome core particle (iCP) (Homo sapiens, UniProt P28062); assay: Kinetic assay, CT-L FRET reporter with immunoproteasome; conditions: 25 μM compound
Procedure: Compounds 1, 2, and 3 were screened with the immunoproteasome in triplicate using the CT-L FRET reporter.
as §1, §2

[3] = target: T2, chymotrypsin-like activity of the 20S CP (Homo sapiens, UniProt P28074); assay: Kinetic assay, Suc-LLVY-AMC reporter hydrolysis by purified 20S CP; conditions: 25 μM compound, triplicate; hit = at least 50% increase
T2 construct: 5 μL purified 20S proteasome (90 nM in Tris-HCl) was added to the control and test wells
Procedure: Plate preparation for the kinetic assay was performed similarly for all assays. All 96-well plates contained the following in triplicate: reporter background, containing reporter only, and control wells, containing reporter and purified 20S CP. It was determined that each well will contain a total volume of 50 μL. To each well was added 40 μL of the coumarin or FRET reporters (in Tris-HCl, 50 mM, pH 7.7). To the reporter background wells was added 7.5 μL Tris-HCl and 2.5 μL of the solvent in which the compound of interest was dissolved or diluted. Similarly, to the control wells was added 2.5 μL Tris-HCl and 2.5 μL of the solvent in which the compound of interest was dissolved or diluted. To the test wells was added 2.5 μL Tris-HCl and 2.5 μL of the compound of interest at a predetermined concentration. Immediately prior to running the assay on the Synergy 4 Plate Reader, 5 μL purified 20S proteasome (90 nM in Tris-HCl) was added to the control and test wells.
The Synergy 4 Plate Reader was set to heat the plate at 37° C. and read fluorescence every 2 min over a 40 min period. The excitation and emission wavelengths were set according to the reporter. For the FRET reporter, the excitation and emission wavelengths were set to 335 nm and 493 nm, respectively, corresponding to the excitation and emission wavelengths of the Edans fluorophore. […]
Sodium dodecyl sulfate (SDS) was used to test the effect stimulating the 20S proteasome has on the hydrolysis of the FRET reporters. The appropriate concentration of SDS to use in the kinetic assay was determined using the small chymotrypsin-like activity reporter, Suc-LLVY-AMC (SEQ ID NO: 4). […] In triplicate, the following final concentrations of SDS were analyzed for the effect each has on the activity of the 20S proteasome: 4000 μM, 2000 μM, 1000 μM, 500 μM, 250 μM, 125 μM, and 0 μM, the basal activity of the 20S proteasome. […] Immediately prior to reading the plate with the Synergy 4 plate reader, 5 μL purified 20S proteasome (90 nM in Tris-HCl) was added to the wells at a final concentration of 9 nM per well.
The Synergy 4 Plate Reader was set to heat the plate at 37° C. and read fluorescence every 2 min over a 1 hr period. […] The resulting data in relative fluorescence units (RFU) was analyzed using GraphPad Prism and was plotted against time in minutes. […] Based on the resulting curve and the hyperbolic curve obtained using 1000 μM SDS (FIG. 11b), it was determined that 500 μM SDS was the appropriate concentration to use to test the effect stimulating the 20S proteasome has on the hydrolysis of the FRET reporters.
Stimulation of the 20S proteasome with SDS was determined using both the coumarin and FRET reporters for the chymotrypsin-like and trypsin-like activities of the 20S CP. […]

| Compound | ability to stimulate the 26S proteasome's CT-L activity [1] | ability to stimulate the chymotrypsin-like activity of the iCP [2] | primary hit status with the 4-amino acid reporter Suc-LLVY-AMC [3] |
| --- | --- | --- | --- |
| C[C@H]1[C@H](C)CC[C@]2(C(=O)O)CC[C@]3(C)C(=CC[C@@H]4[C@@]5(C)CC[C@H](O)C(C)(C)[C@@H]5CC[C@]43C)[C@H]12 [Compound 2, ursolic acid] | Neither molecules 2 or 3 affected the rate | showed an effect; also recorded: stimulate the chymotrypsin-like activity of the iCP significantly | would not have been considered primary hits |
| Cc1c(C)c2c(c(C)c1OC(=O)CCC(=O)O)CC[C@@](C)(CCC[C@H](C)CCC[C@H](C)CCCC(C)C)O2 [Compound 3, vitamin E succinate] | Neither molecules 2 or 3 affected the rate | showed an effect; also recorded: stimulate the chymotrypsin-like activity of the iCP significantly | would not have been considered primary hits |
